# Columns and labels:
# 3T3L1 preadipocytes = test: Cell death and apoptosis of 3T3L1 preadipocytes (trypan blue, LDH, flow cytometry); assay type: cell-based, mouse; details: 50 μM, vs control
# Method: 50 μM of stearate, oleate or linoleate was used to treat 3T3L1 cells as this concentration is centered within the normal range for non-esterified stearate in the plasma of humans. Stearate, oleate, or linoleate was loaded onto fatty acid free BSA according to the method reported by Spector and Hoak (Spector and Hoak, 1969). Briefly, stearate (0.5 g) was dissolved in chloroform (100 mL) and mixed well with 10 g diatomaceous earth in a 1 liter flask. The mixture was stirred and dried under nitrogen until powder. Fatty acid free BSA (1 g) was dissolved in 100 mL with DMEM without phenol red and mixed with 3 g of the stearate/diatomaceous earth mixture and stirred for 30 minutes. The stearate/BSA solution was filtered through a 0.45 μm filter, and adjusted to pH 7.4. The concentration of stearate in the solution was detected by use of a NEFA C kit. Oleic and linoleate were loaded in the same way. […] Before the treatment with fatty acid, 3T3L1 preadipocytes were grown to 100%, and were starved in 2% FBS medium for 24 hours.
# After treatment, 3T3L1 cells were harvested, washed with cold PBS, and then resuspended in 100 μl annexin-binding buffer (50 mM HEPES, 700 mM NaCl, 12.5 mM CaCl2, pH 7.4). Cell density was determined, and the cells were diluted to 10^6 cells. Then 5μL of Alex Fluo 488 annexin V and 1 μL propidium iodide (PI) were added. Cells were gently oscillated and incubated for 15 min at room temperature. After adding 400 μL of binding buffer to each tube, cells were kept on ice and analyzed by flow cytometry within 1 hour. Cells that stained positive for Alex Fluo 488 annexin V and negative for PI were considered to be apoptotic. Cells that stained positive for both Alex Fluo 488 annexin V and PI were considered either in the end stage of apoptosis, or necrosis. Cells that stained negative for both Alex Fluo 488 annexin V and PI were considered alive and not undergoing measurable apoptosis. A BD LSR II flow cytometer from Becton Dickinson was used in all flow experiments and the data were analyzed with BD FACSDiva™ software V.6.1.3.
# Lactate dehydrogenase (LDH) release was measured using a cytotoxicity detection kit, according to the manufacture's protocol. After 3T3L1 cells were treated, 1 ml of cell culture medium was removed and centrifuged. The supernatant was retained for assaying. For determinations, 100 μl of LDH assay reagent was added to 100 μl of supernatant and incubated for 30 min at room temperature in the dark. Absorbance was measured at 490 nm. Background release from culture medium alone was subtracted before reporting. Maximum release was measured after adding 2% Triton X-100 to untreated cells.
# After treatment, 3T3L1 cells were harvested and stained with 0.4% trypan blue solution. Cells in the four corners of the grid were counted under a conventional bright field binocular microscope.
# [1] = system: Hs578T human breast cancer cells; test: Flow cytometry cell cycle analysis; assay type: cell-based; details: 50 μM stearate
# Method: Hs578T human breast cancer cells (ATCC, HTB-126) were maintained according to the manufacturer's recommendations, in Dulbecco's modified Eagle's medium containing 10% fetal bovine serum, […] insulin and penicillin/streptomycin.
# The concentration of stearate used to treat the Hs578T cells was 50 μM. When EGF was used, the concentration was 1 nM EGF. Before the treatment with stearate or EGF, cells were first starved for 24-48 hours. Stearate was loaded onto fatty acid-free bovine serum albumin (BSA) according to the method reported by Spector et al. (13); briefly, stearate (0.5 g) was dissolved in chloroform (100 ml) and mixed well with 10 g diatomaceous earth in a 1 liter flask. The mixture was stirred and dried under nitrogen until powder. BSA is a physiological carrier of fatty acids and was used to avoid the introduction of organic solvents to solutions coming into contact with cells. […] The concentration of stearate in the solution was detected with the NEFA C Kit from Wako Chemicals GmbH (Neuss, Germany). […]
# To analyze cellular DNA content, confluent Hs578t cells were harvested, fixed in ice-cold 70% ethanol for 30 min and then resuspended in citrate buffer (4 mM sodium citrate) containing 50 μg/ml of propidium iodide and 100 μg/ml of RNase. […] Data were analyzed using the ModFit LT workshop program (BD Immunocytometry System, San Jose, Calif.).
# [2] = system: p21^CIP1/WAF1, p27^KIP1, pCdk2; test: Immunoblot of p21CIP1/WAF1, p27KIP1 and phosphorylated Cdk2 in Hs578T cells; assay type: cell-based, human; details: 50 μM stearate, Hs578T
# Method: (§1) The concentration of stearate used to treat the Hs578T cells was 50 μM. When EGF was used, the concentration was 1 nM EGF. Before the treatment with stearate or EGF, cells were first starved for 24-48 hours. Stearate was loaded onto fatty acid-free bovine serum albumin (BSA) according to the method reported by Spector et al. (13); briefly, stearate (0.5 g) was dissolved in chloroform (100 ml) and mixed well with 10 g diatomaceous earth in a 1 liter flask. The mixture was stirred and dried under nitrogen until powder. BSA is a physiological carrier of fatty acids and was used to avoid the introduction of organic solvents to solutions coming into contact with cells. Fatty acid-free BSA (1 g) was dissolved in 100 ml with Dulbecco's modified Eagle's medium without phenol red and mixed with 3 g of the stearate/diatomaceous earth mixture with stirring for 45 min. The stearate/BSA solution was filtered through a 0.45 μm filter, and adjusted to pH 7.4. The concentration of stearate in the solution was detected with the NEFA C Kit from Wako Chemicals GmbH (Neuss, Germany). All experimental data on Hs578T cells were controlled using fatty acid-free BSA control solutions that were put through the same preparatory procedure described for the stearate/BSA solution except for the fact that no fatty acid was added.
# Cells were treated as described above, and lysed with lysis buffer. The supernatants of the lysates or the immunoprecipitates were loaded with Laemmli sample buffer on 10% sodium dodecyl sulfate-polyacrylamide gel electrophoresis gels after boiling at 100° C. for 5 min. Proteins were then transferred to a polyvinylidene difluoride membrane. The membranes were blocked overnight at 4° C. with blocking buffer containing 5% non-fat dried milk powder in Tris-buffered saline-T (25 mM Tris, 140 mM NaCl, 2.7 mM KCl, 0.05% Tween-20, pH 8.0), incubated with primary antibody in blocking buffer at room temperature for 1 hour and incubated with antirabbit or antimouse antibodies labeled with horseradish peroxidase (1:5000) in blocking buffer under the same conditions, and then washed three times for 10 min in Tris-buffered saline-T. The polyvinylidene difluoride membranes were washed and developed using enhanced chemiluminescence reagents.
# Rho = Rho activation assay in Hs578T cells; assay type: cell-based, human; details: all time points, especially 16 and 24 h post-EGF stimulation; vs controls
# Method: as §1, with “All experimental data on Hs578T cells were controlled using fatty acid-free BSA control solutions that were put through the same preparatory procedure described for the stearate/BSA solution except for the fact that no fatty acid was added.” left out
# Ras and Rho activation assay kits were purchased from Millipore (Billerica, Mass.). […] The beads were washed three times with lysis buffer B. Bound Ras-GTP and Rho-GTP proteins were detected by immunoblot using Ras and Rho antibodies.
# [3] = system: human ovarian granulosa cells; details: 50 μM for 3 days; cited from earlier work
# MCF10A = details: ref (27); cited from earlier work
compound,measurement,setting,value
"CCCCCCCCCCCCCCCCCC(=O)O [stearate, Stearic acid]",Percentage of dead cells (trypan blue),3T3L1 preadipocytes; 48 hour treatment,significantly increased
same,Dead cells (flow cytometry),3T3L1 preadipocytes; 48 hours,increase
same,Cytotoxicity (lactate dehydrogenase),3T3L1 preadipocytes; after 24 hours,significantly increased
same,Apoptotic cells (flow cytometry),3T3L1 preadipocytes,significantly increased
same,Cells in the S phase,[1],reduced
same,Number of cells in G0/G1 and G2/M,[1]; also in complete media and with EGF,increased
same,Protein level of p21^CIP1/WAF1,[2],increases
same,Protein level of p27^KIP1,[2],increases
same,pCdk2,[2],decreased
same,Rho-GTP,Rho,decreased
same,Cell viability,[3],no decrease
same,Effect on MCF10A non-tumorigenic cell line,MCF10A,not affected

# Source: patent US20140357706A1, “Stearate Compounds” (THE UAB RESEARCH FOUNDATION, priority 2011, published 2014)
